Laboratory results taken from US20230277568A1, “METHOD OF TREATMENT FOR […] PSILOCIN INFUSION” (Eleusis Therapeutics US, Inc., priority 2020, published 2023).
“Also recorded” adds a separate entry of the source.

Columns and labels:
WKY rats = test: Forced swim test in rat model of depression; assay type: in vivo; settings: FST 21 days after injection
Experimental: A rat model of depression was used to assess the antidepressant effect of psilocin alone or in combination with lorazepam. WKY rats were divided into 3 groups (n=8 animals per group) and treated with (i) 1 mg/kg of psilocin injected as a bolus dose into the tail vein (PSI); (ii) 1.8 mg/kg of lorazepam injected 30 i.p. minutes prior to a 1 mg/kg tail vein injection of psilocin (P+L); or (iii) saline (SAL; as a control group). The dose of lorazepam was chosen to be a moderate/low non-sedating but anxiolytic dose in rats after consultation with an expert in the field of benzodiazepine's effects in rats.
After injection treatment, rats were maintained in their home cage for three weeks (21 days) prior to testing by forced swim test (FST) as described in Hibicke et al., ACS Chem. Neurosci. 2020, 11, 6, 864-871.
Forced Swim Test methodology: During a pre-exposure, rats were placed into a plastic cylindrical tank (114 cm×30.5 cm) that contained 30 cm of water at 28-30° C. The water depth was such that the rats could not support themselves by touching the bottom of the tank with their hind paws, and their tails could not touch the bottom of the tank while keeping their noses above water. After a 15 min swim, the rats were removed, dried with paper towels, and replaced in their home cages. Fresh water was used for each animal. For the testing, a video camera was mounted to the side of the tank, and the rats were exposed to a 5 min swim under the conditions described above and then removed, dried with paper towels, and returned to their home cages. The 5 min swim was recorded for later scoring for immobility, swimming, and climbing. FST scoring was performed by a trained scorer. Immobility was defined as no active attempts to escape while maintaining a floating posture in which the rats make only the movements necessary to keep their heads above water. Swimming was defined as actively attempting escape with motions directed outward against the wall of the cylinder. Climbing was defined as actively attempting escape with motions directed upward against the wall of the cylinder.

5-HT2A receptor = 5-HT2A receptor (Homo sapiens, UniProt P28223); settings: background statement; cited from earlier work
5-HT2A receptor, sequence (P28223 whole entry): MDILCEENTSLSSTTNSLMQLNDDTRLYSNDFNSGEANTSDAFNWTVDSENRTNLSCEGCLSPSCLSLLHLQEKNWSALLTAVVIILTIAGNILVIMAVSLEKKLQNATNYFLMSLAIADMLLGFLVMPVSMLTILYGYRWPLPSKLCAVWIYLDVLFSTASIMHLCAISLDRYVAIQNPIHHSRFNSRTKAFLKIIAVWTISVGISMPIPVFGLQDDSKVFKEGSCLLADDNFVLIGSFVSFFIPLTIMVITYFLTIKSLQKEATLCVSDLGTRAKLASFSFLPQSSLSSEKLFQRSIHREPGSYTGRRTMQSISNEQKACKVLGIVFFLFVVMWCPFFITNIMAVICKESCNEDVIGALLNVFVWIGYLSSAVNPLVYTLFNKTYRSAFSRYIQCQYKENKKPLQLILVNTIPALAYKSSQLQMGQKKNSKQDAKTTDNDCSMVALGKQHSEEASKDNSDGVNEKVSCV

[1] = 1.8 mg/kg lorazepam i.p. 30 minutes prior to 1 mg/kg i.v. psilocin

| Structure (SMILES) | effect of lorazepam pretreatment on the effects of psilocin, immobility measure (WKY rats; [1]) | effect of lorazepam pretreatment on the effects of psilocin, swimming behavior (WKY rats; [1]) | effect of lorazepam pretreatment on the effects of psilocin, immobility measure (WKY rats; 1.8 mg/kg lorazepam i.p. 30 minutes prior to 1 mg/kg i.v. psilocin, listed as lorazepam) | affinity for the 5-HT2A receptor (5-HT2A receptor) | antidepressant-like behaviors in forced swim test (WKY rats; 1 mg/kg psilocin single i.v. bolus (tail vein), 1 mg/kg) |
| --- | --- | --- | --- | --- | --- |
| O=C1Nc2ccc(Cl)cc2C(c2ccccc2Cl)=NC1O (centres unmarked) [Lorazepam] | slight but significant effect to blunt the effects of psilocin | no significant effect | slight, but significant effect | – | – |
| CN(C)CCc1c[nH]c2cccc(O)c12 [psilocin, 4-hydroxy-N,N-dimethyltrypamine] | – | – | – | high affinity | as efficacious in producing long-lasting antidepressant-like behaviors in this model as a single i.p. administration of psilocybin of the same dose; also recorded: as efficacious in producing long-lasting antidepressant-like behaviors in our model as a single i.p. administration of psilocybin of the same dose |
